Among the data in ChEMBL document CHEMBL5376018 (RSC Med Chem, 2024) are selectivity ratio, EC50 and CC50 values, retold here.

Data set [1] in a line: Selectivity index, ratio of CC50 for cytotoxicity against human H1-HeLa cells infected with 1 MOI human rhinovirus 14 to EC50 for antiviral activity against Human rhinovirus 14 infected in human H1-HeLa cells. As to conditions: H1-HeLa cells infected with human rhinovirus 14, read-out: Ratio CC50/EC50. It counts as toxicity, cell-based.
A short description of data set [2]: Selectivity index, ratio of CC50 for cytotoxicity against human H1-HeLa cells infected with 1 MOI human rhinovirus 16 to EC50 for antiviral activity against Human rhinovirus 16 infected in human H1-HeLa cells. It counts as toxicity, cell-based. As to conditions: H1-HeLa cells infected with human rhinovirus 16, read-out: Ratio CC50/EC50.
The next data set deals with rhinovirus A21. Put plainly: Antiviral activity against Human rhinovirus A21 infected in human H1-HeLa cells incubated for 3 days measured by crystal violet staining based plaque counting analysis. As to conditions: Rhinovirus A, 72 h.
For the next data set, the system named is H1-HeLa. Put plainly: cells. As to conditions: Homo sapiens, 1 h.
Another data set relates to rhinovirus B14. Nature of the data set: Antiviral activity against Human rhinovirus 14 infected in human H1-HeLa cells incubated for 3 days measured by crystal violet staining based plaque counting analysis. As to conditions: Rhinovirus B, 72 h.
Data set [3] is described as follows: Selectivity index, ratio of CC50 for cytotoxicity against human H1-HeLa cells infected with 1 MOI human rhinovirus 21 to EC50 for antiviral activity against Human rhinovirus 21 infected in human H1-HeLa cells. Format: toxicity, cell-based. As to conditions: H1-HeLa cells infected with human rhinovirus 21, read-out: Ratio CC50/EC50.
In another data set the test system is rhinovirus A16. Nature of the data set: Antiviral activity against Human rhinovirus 16 infected in human H1-HeLa cells incubated for 3 days measured by crystal violet staining based plaque counting analysis. As to conditions: Rhinovirus A, 72 h.

The term EC50 denotes the concentration that produces a half-maximal response. A low value points to greater potency. For orientation: CC50 means the concentration at which the toxic effect on the cells reaches its halfway point. Regarding `CC(=O)Nc1nc(C)c(-c2ccc(Cl)c(S(=O)(=O)NCCO)c2)s1`, the values for the selectivity ratio in data set [1], in data set [2] and in data set [3] were 21, 19 and 10, respectively. Moreover, the EC50 in the data set on rhinovirus A21 is 1600 nM; with rhinovirus B14, 770 nM; with rhinovirus A16, 840 nM. In addition, it took 15.8 µM to reach half-maximal cytotoxicity in the data set with H1-HeLa (CC50).

Turning to `CCOC(=O)/C=C/[C@H](C[C@@H]1CCNC1=O)NC(=O)[C@@H](CC(=O)[C@@H](NC(=O)c1cc(C)on1)C(C)C)Cc1ccc(F)cc1`, the EC50 in the data set with rhinovirus A21 turned out to be 95 nM; in the data set on rhinovirus B14, 58 nM; in the data set on rhinovirus A16, 80 nM. Moreover, the CC50 in the data set with H1-HeLa was above 100 µM.

For `COCCNS(=O)(=O)c1cc(-c2sc(NC(=O)C(C)(C)C)nc2C)ccc1OC`, the results for the selectivity ratio in data set [1], in data set [2] and in data set [3] were above 15, above 25 and above 13, respectively. Also, the EC50 in the data set with rhinovirus A21 is 1500 nM; in the data set on rhinovirus B14, 1300 nM; in the data set on rhinovirus A16 it was 790 nM. Also, the CC50 in the data set on H1-HeLa is above 20 µM.

As for `COc1ccc(-c2sc(NC(=O)C(C)(C)C)nc2C)cc1S(=O)(=O)NCCNC(C)=O`, the values for the selectivity ratio in data set [1], in data set [2] and in data set [3] were above 5, above 6 and above 2, respectively. Also, the concentration for a half-maximal effect (EC50) in the data set with rhinovirus A21 is 9100 nM; in the data set on rhinovirus B14, 4400 nM; with rhinovirus A16, 3300 nM. In the data set on H1-HeLa, this compound returned a half-maximal cytotoxic concentration (CC50) above 20 µM.

Consider `COc1ccc(-c2sc(NC(C)=O)nc2C)cc1S(=O)(=O)CCN1CCOCC1`, for which the selectivity ratio in data set [1] is above 14; in data set [2], above 15; in data set [3] it was above 6. Also, the EC50 in the data set with rhinovirus A21 amounted to 3200 nM; in the data set with rhinovirus B14, 1400 nM; in the data set with rhinovirus A16 it was 1300 nM. Besides, the CC50 in the data set with H1-HeLa is above 20 µM.

`COc1ccc(-c2sc(NC(=O)C(C)(C)C)nc2C)cc1S(=O)(=O)CCc1ccncc1`: the selectivity ratio in data set [1] was above 10; in data set [2], above 13; in data set [3] it was above 7. In addition, the EC50 is 1700 nM in the data set with rhinovirus A21, 1300 nM with rhinovirus B14 and 1000 nM with rhinovirus A16. For the same compound, the 50% cytotoxic concentration (CC50) with H1-HeLa is 12.5 µM.

Consider `COc1ccc(-c2sc(NC(=O)C(C)(C)C)nc2C)cc1S(=O)(=O)NCc1cccc(S(C)(=O)=O)c1`, for which the selectivity ratio in data set [1] is above 5; in data set [2] it was above 10; in data set [3], above 4. Moreover, the 50% effective concentration (EC50) with rhinovirus A21 amounted to 4500 nM; in the data set with rhinovirus B14 it was 3800 nM; in the data set with rhinovirus A16 it was 2000 nM. Besides, the CC50 in the data set with H1-HeLa was above 20 µM.

`COc1ccc(-c2sc(NC(=O)C(C)(C)C)nc2C)cc1S(=O)(=O)NCCN1CCOCC1`: the results for the selectivity ratio in data set [1], in data set [2] and in data set [3] were above 20, above 36 and above 11, respectively. Besides, the EC50 came to 1800 nM in the data set with rhinovirus A21, 1000 nM in the data set with rhinovirus B14 and 560 nM with rhinovirus A16. In addition, in the data set with H1-HeLa, the CC50 was above 20 µM.

For the compound `COc1ccc(-c2sc(NC(C)=O)nc2C)cc1`, the selectivity ratio in data set [1] is above 1; in data set [2] it was above 2; in data set [3], above 1. Further, the half-maximal effective concentration (EC50) in the data set on rhinovirus A21 amounted to 17700 nM; with rhinovirus B14, 14500 nM; in the data set with rhinovirus A16 it was 12000 nM. The compound further displayed a half-maximal cytotoxic concentration (CC50) in the data set on H1-HeLa above 20 µM.
